Test results as given in the NIST ThermoML archive (doi:10.1016/j.jct.2015.03.002).

Conditions: Liquid

CCCC[N+]1(C)CCCC1.O=S(=O)([O-])C(F)(F)F [1-butyl-1-methylpyrrolidinium trifluoromethanesulfonate]
viscosity [mPa·s]
Conditions	10000 kPa	15000 kPa	25000 kPa	50000 kPa	75000 kPa	100000 kPa	125000 kPa	150000 kPa
303.15 K, Concentric cylinders viscometry	147.2	158.4	181.8	249.5	341.1	–	–	–
303.15 K, Falling or rolling sphere viscometry	144.8	154.3	174.9	236.9	317.7	422.8	559.5	737.7
313.15 K, Concentric cylinders viscometry	–	–	–	148.1	202.2	–	–	–
313.15 K, Falling or rolling sphere viscometry	89.2	94.8	106.9	142.7	188.1	245.4	318.1	410.1
323.15 K, Falling or rolling sphere viscometry	58.9	62.5	70.2	92.3	119.5	153	194.1	244.7
333.15 K, Falling or rolling sphere viscometry	41.7	43.9	48.6	62.3	79	99.6	124.9	156
343.15 K, Falling or rolling sphere viscometry	29.9	31.4	34.7	44.2	55.7	69.6	86.4	106.8
353.15 K, Falling or rolling sphere viscometry	22.5	23.7	26.1	32.7	40.5	49.4	59.9	72

CC(C)CCCC(C)CCCC(C)CCCCC(C)CCCC(C)CCCC(C)C (configuration not stated) [2,6,10,15,19,23-hexamethyltetracosane]
viscosity [mPa·s], Falling or rolling sphere viscometry
Conditions	10000 kPa	15000 kPa	25000 kPa	50000 kPa	75000 kPa	100000 kPa	125000 kPa	150000 kPa
303.15 K	27.4	30.8	38.2	62.7	98.5	150.8	227.4	339.5
313.15 K	18.4	20.4	24.8	39.1	59.5	88.7	130.3	189.8
323.15 K	13	14.3	17.1	26.1	38.7	56.3	80.9	115.4
333.15 K	9.2	10.1	12.1	18.2	26.5	37.8	53.2	74
343.15 K	7	7.6	9	13.3	19	26.7	37	50.8
353.15 K	5.4	5.9	6.9	10.1	14.2	19.5	26.4	35.5

CCCC[N+]1(C)CCCC1.FC(F)(F)C(F)(F)[P-](F)(F)(F)(C(F)(F)C(F)(F)F)C(F)(F)C(F)(F)F
viscosity [mPa·s]
Conditions	10000 kPa	15000 kPa	25000 kPa	50000 kPa	75000 kPa	100000 kPa	125000 kPa	150000 kPa
303.15 K, Concentric cylinders viscometry	198.9	221.8	273.1	465.5	791.6	–	–	–
303.15 K, Falling or rolling sphere viscometry	189.5	212.4	265.5	454.7	765.1	1274	2111	3485
313.15 K, Concentric cylinders viscometry	118.9	131.3	162.6	263.5	434.8	–	–	–
313.15 K, Falling or rolling sphere viscometry	113.5	124.7	150.6	241.3	386.8	620.3	995.1	1597
323.15 K, Concentric cylinders viscometry	–	–	–	–	234.7	–	–	–
323.15 K, Falling or rolling sphere viscometry	73.4	80	94.9	145.4	222.6	340.5	520.9	797
333.15 K, Falling or rolling sphere viscometry	48	52	61	90.7	134.3	198.1	291.7	429.1
343.15 K, Falling or rolling sphere viscometry	33.9	36.5	42.2	60.5	86.9	124.5	178.5	255.8
353.15 K, Falling or rolling sphere viscometry	24.7	26.6	30.7	43.4	60.6	84.1	116	159.3
